Drawing on patent US20240366598A1, “GLUCOSE-DEPENDENT INSULINOTROPIC POLYPEPTIDE RECEPTOR ANTAGONISTS AND USES THEREOF” (Pfizer Inc., priority 2023, published 2024), this text covers IC50 for 28 molecules.

Structures can show the parent of a compound that is named as a salt.

The experiment addresses T1, human Glucose-dependent Insulinotropic Polypeptide Receptor (hGIPR) (Homo sapiens, UniProt P48546).
T1 sequence (P48546 22-466): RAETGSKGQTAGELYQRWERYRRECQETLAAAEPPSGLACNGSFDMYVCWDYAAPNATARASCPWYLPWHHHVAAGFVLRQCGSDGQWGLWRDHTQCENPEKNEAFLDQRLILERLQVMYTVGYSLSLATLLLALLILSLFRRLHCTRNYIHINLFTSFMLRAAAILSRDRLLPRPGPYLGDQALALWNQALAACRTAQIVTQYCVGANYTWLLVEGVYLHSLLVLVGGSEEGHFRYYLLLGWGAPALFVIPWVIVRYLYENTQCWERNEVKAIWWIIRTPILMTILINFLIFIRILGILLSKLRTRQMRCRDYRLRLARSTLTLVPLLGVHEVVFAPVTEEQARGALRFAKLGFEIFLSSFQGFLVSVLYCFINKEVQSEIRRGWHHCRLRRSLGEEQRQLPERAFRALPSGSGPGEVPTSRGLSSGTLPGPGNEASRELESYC
Nature of the experiment: Functional in vitro GIPR antagonist potency assay (cAMP HTRF, CHO-K1 cells stably expressing hGIPR, hGIP stimulation at about EC80). In kind it is cell-based. Conditions: geometric mean, hGIP at estimated EC80, examples marked ^2: overall geometric mean of multiple forms (including salts) tested. In short, it runs like this:
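HTRF quantification of cAMP after stimulation with hGIP at an estimated EC80 for 30 min at 37 °C. Before stimulation, hGIPR-expressing CHO-K1 cells were exposed 2 h to test compound in IBMX-containing buffer, with 0.5% DMSO final. Percent effect is referenced to agonist alone (0%) and to 80 μM of a reference antagonist (100%), and runs required the agonist concentration to fall within the on-the-day EC50–EC90.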
Regarding `Cc1cc(NC(=O)N2CCC[C@@H]2C(=O)Nc2ccc(-c3ccc(C(=O)O)cc3)cc2)cnc1C(C)C` [Example 145, 4′-[(1-{[5-methyl-6-(propan-2-yl)pyridin-3-yl]carbamoyl}-D-prolyl)amino][1,1′-biphenyl]-4-carboxylic acid, trifluoroacetate salt], the IC50 is 70 nM. In the case of `Cc1cc(NC(=O)N2CCC[C@@H]2C(=O)Nc2ccc(-c3ccc(C(=O)O)cc3)cc2)ncc1C(C)C` [Example 146, 4′-[(1-{[4-methyl-5-(propan-2-yl)pyridin-2-yl]carbamoyl}-D-prolyl)amino][1,1′-biphenyl]-4-carboxylic acid, trifluoroacetate salt] it was 9.7 nM. As to `CC(c1ccc(NC(=O)N2CCC[C@@H]2C(=O)Nc2ccc(-c3ccc(C(=O)O)cc3)cc2)cc1)C(F)(F)F` (stereo partly drawn) [Example 147, 4′-[(1-{[4-(1,1,1-trifluoropropan-2-yl)phenyl]carbamoyl}-D-prolyl)amino][1,1′-biphenyl]-4-carboxylic acid], the IC50 was 13 nM.

For `CC(C)c1ccc(NC(=O)N2CCC[C@@H]2C(=O)Nc2ccc(-c3cccc(C(N)=O)c3)cc2)cc1` [Example 148, (2R)-N^2-(3′-carbamoyl[1,1′-biphenyl]-4-yl)-N^1-[4-(propan-2-yl)phenyl]pyrrolidine-1,2-dicarboxamide], the IC50 is 240 nM. The same measure for `O=C(O)c1ccc(-c2ccc(NC(=O)[C@H]3CCCN3C(=O)Nc3ccc(C4CC4)c(F)c3)cc2)cc1` [Example 149, 4′-({1-[(4-cyclopropyl-3-fluorophenyl)carbamoyl]-D-prolyl}amino)[1,1′-biphenyl]-4-carboxylic acid]: 21 nM; for `Cc1cc(NC(=O)[C@H]2CCCN2C(=O)Nc2ccc(C(C)C)cc2)cnc1-c1ccc(C(=O)O)cc1` [Example 150, 4-{3-methyl-5-[(1-{[4-(propan-2-yl)phenyl]carbamoyl}-D-prolyl)amino]pyridin-2-yl}benzoic acid]: 86 nM; for `COc1cc(C(=O)O)ccc1-c1ccc(NC(=O)[C@H]2CCCN2C(=O)Nc2ccc(C(C)C)cc2)nc1` [Example 151, 3-methoxy-4-{6-[(1-{[4-(propan-2-yl)phenyl]carbamoyl}-D-prolyl)amino]pyridin-3-yl}benzoic acid]: 110 nM.

For `CC(C)c1ccc(NC(=O)N2CCC[C@@H]2C(=O)Nc2ccc3cc(C(=O)O)ccc3c2)cc1F` [Example 152, 6-[(1-{[3-fluoro-4-(propan-2-yl)phenyl]carbamoyl}-D-prolyl)amino]naphthalene-2-carboxylic acid], the IC50 was 44 nM.

As for `O=C(O)c1ccc(-c2ccc(NC(=O)[C@H]3CCCN3C(=O)NCc3ccc(C(F)(F)F)cc3)nc2)cc1` [Example 153, 4-(6-{[1-({[4-(trifluoromethyl)phenyl]methyl}carbamoyl)-D-prolyl]amino}pyridin-3-yl)benzoic acid], the IC50 is 11 nM. As for `CC(C)c1ccc(NC(=O)N2C[C@H]3C[C@H]3[C@@H]2C(=O)Nc2ccc(-c3cccc(C(=O)O)c3)cc2)cc1` [Example 154, 4′-{[(1R,2R,5S)-3-{[4-(propan-2-yl)phenyl]carbamoyl}-3-azabicyclo[3.1.0]hexane-2-carbonyl]amino}[1,1′-biphenyl]-3-carboxylic acid], the IC50 is 58 nM. For the molecule `O=C(O)c1ccc(-c2ccc(NC(=O)[C@H]3CCCN3C(=O)Nc3ccc(CC(F)(F)F)cc3)cc2)cc1` [Example 155, 4′-[(1-{[4-(2,2,2-trifluoroethyl)phenyl]carbamoyl}-D-prolyl)amino][1,1′-biphenyl]-4-carboxylic acid], the IC50 was 22 nM. Regarding `COc1cc(C(=O)O)ccc1-c1ccc(NC(=O)[C@H]2CCCN2C(=O)Nc2ccc(C(C)C)c(C)c2)nc1` [Example 156, 3-methoxy-4-{6-[(1-{[3-methyl-4-(propan-2-yl)phenyl]carbamoyl}-D-prolyl)amino]pyridin-3-yl}benzoic acid], the IC50 is 45 nM.

Regarding `O=C(O)c1ccc(-c2ccc(NC(=O)[C@H]3CCCN3C(=O)NCc3ccc(C(F)(F)F)cc3)cc2)cc1` [Example 157, 4′-{[1-({[4-(trifluoromethyl)phenyl]methyl}carbamoyl)-D-prolyl]amino}[1,1′-biphenyl]-4-carboxylic acid], the IC50 is 10 nM.

`COc1cc(-c2ccc(NC(=O)[C@H]3CCCN3C(=O)Nc3ccc(C(F)(F)F)c(C)c3)cc2)ccc1C(=O)O` [Example 158, 3-methoxy-4′-[(1-{[3-methyl-4-(trifluoromethyl)phenyl]carbamoyl}-D-prolyl)amino][1,1′-biphenyl]-4-carboxylic acid]: the IC50 was 7.7 nM. Regarding `CC(C)c1ccc(NC(=O)N2C[C@@H]3C[C@@H]3[C@@H]2C(=O)Nc2ccc(-c3cccc(C(=O)O)c3)cc2)cc1` [Example 159, 4′-{[(1S,2R,5R)-3-{[4-(propan-2-yl)phenyl]carbamoyl}-3-azabicyclo[3.1.0]hexane-2-carbonyl]amino}[1,1′-biphenyl]-3-carboxylic acid], the IC50 was 110 nM. The same measure for `Cc1cc(NC(=O)[C@H]2CCCN2C(=O)Nc2ccc(C3CCC3)cc2)cnc1-c1ccc(C(=O)O)cc1` [Example 160, 4-[5-({1-[(4-cyclobutylphenyl)carbamoyl]-D-prolyl}amino)-3-methylpyridin-2-yl]benzoic acid]: 75 nM; for `O=C(O)c1ccc2cc(NC(=O)[C@H]3CCCN3C(=O)Nc3ccc(C(F)(F)F)cc3)ccc2c1` [Example 161, 6-[(1-{[4-(trifluoromethyl)phenyl]carbamoyl}-D-prolyl)amino]naphthalene-2-carboxylic acid]: 77 nM; for `Cc1cc(NC(=O)N2CCC[C@@H]2C(=O)Nc2ccc3cc(C(=O)O)ccc3c2)ccc1C(C)C` [Example 162, 6-[(1-{[3-methyl-4-(propan-2-yl)phenyl]carbamoyl}-D-prolyl)amino]naphthalene-2-carboxylic acid]: 44 nM.

With `Cc1cc(NC(=O)N2CCC[C@@H]2C(=O)Nc2ccc(-c3ccc(C(=O)O)cc3)nc2)ccc1C(F)(F)F` [Example 163, 4-{5-[(1-{[3-methyl-4-(trifluoromethyl)phenyl]carbamoyl}-D-prolyl)amino]pyridin-2-yl}benzoic acid], the IC50 was 19 nM. In the case of `C[C@H](NC(=O)N1CCC[C@@H]1C(=O)Nc1ccc(-c2ccc(C(=O)O)cc2)cc1)c1ccc(C(F)(F)F)cc1` [Example 164, 4′-{[1-({(1S)-1-[4-(trifluoromethyl)phenyl]ethyl}carbamoyl)-D-prolyl]amino}[1,1′-biphenyl]-4-carboxylic acid] it was 22 nM. For `Cc1cc(NC(=O)N2CCC[C@@H]2C(=O)Nc2ccc(-c3ccc(C(=O)O)nc3C)cc2)ccc1C(F)(F)F` [Example 167, 6-methyl-5-{4-[(1-{[3-methyl-4-(trifluoromethyl)phenyl]carbamoyl}-D-prolyl)amino]phenyl}pyridine-2-carboxylic acid], the IC50 was 7.2 nM.

Consider `Cc1cc(NC(=O)N2CCC[C@@H]2C(=O)Nc2ccc(-c3ccc(C(=O)O)nc3C)cc2)ccc1C(C)C` [Example 168, 6-methyl-5-{4-[(1-{[3-methyl-4-(propan-2-yl)phenyl]carbamoyl}-D-prolyl)amino]phenyl}pyridine-2-carboxylic acid], for which the IC50 is 15 nM. In the case of `Cc1nc(C(=O)O)ccc1-c1ccc(NC(=O)[C@H]2CCCN2C(=O)Nc2ccc(C(F)(F)F)cc2)cc1` [Example 169, 6-methyl-5-{4-[(1-{[4-(trifluoromethyl)phenyl]carbamoyl}-D-prolyl)amino]phenyl}pyridine-2-carboxylic acid], the IC50 is 49 nM. Regarding `COc1cc(-c2ccc(NC(=O)[C@H]3CCCN3C(=O)Nc3ccc(C(F)(F)F)cc3)cc2)ccc1C(=O)O` [Example 170, 3-methoxy-4′-[(1-{[4-(trifluoromethyl)phenyl]carbamoyl}-D-prolyl)amino][1,1′-biphenyl]-4-carboxylic acid], the IC50 is 40 nM.

On to `Cc1cc(C(=O)O)ccc1-c1ccc(NC(=O)[C@H]2CCCN2C(=O)Nc2ccc(C(C)C)cc2)nc1` [Example 171, 3-methyl-4-{6-[(1-{[4-(propan-2-yl)phenyl]carbamoyl}-D-prolyl)amino]pyridin-3-yl}benzoic acid], for which the half-maximal inhibitory concentration (IC50) is 16 nM. With `Cc1cc(C(=O)O)ccc1-c1ccc(NC(=O)[C@H]2CCCN2C(=O)Nc2ccc(C(F)(F)F)cc2)nc1` [Example 172, 3-methyl-4-{6-[(1-{[4-(trifluoromethyl)phenyl]carbamoyl}-D-prolyl)amino]pyridin-3-yl}benzoic acid], the IC50 is 31 nM.

Regarding `Cc1cc(C(=O)O)ccc1-c1ccc(NC(=O)[C@H]2CCCN2C(=O)Nc2ccc(C(C)C)c(C)c2)nc1` [Example 173, 3-methyl-4-{6-[(1-{[3-methyl-4-(propan-2-yl)phenyl]carbamoyl}-D-prolyl)amino]pyridin-3-yl}benzoic acid], the IC50 was 4.4 nM. For `Cc1cc(NC(=O)N2CCC[C@@H]2C(=O)Nc2ccc(-c3ccc(C(=O)O)nc3)cc2)ccc1C1CC1` [Example 174, 5-[4-({1-[(4-cyclopropyl-3-methylphenyl)carbamoyl]-D-prolyl}amino)phenyl]pyridine-2-carboxylic acid], the half-maximal inhibitory concentration (IC50) is 49 nM.
